Data taken from the supplement of paper PMC11061612.

Assays:
[1] = test system: COLO-679 (Melanoma); assay: Bliss excess, mean over the matrix (fraction); higher = more synergy
How it was run: (§1)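 After 24 hours at 37°C and 5% CO2 in 1536-well plates, cells in DMEM/F12 or RPMI plus 10% FBS received two-drug dose matrices for 72 hours. Viability came from CellTiter-Glo 2.0 luminescence and was scaled as inhibition, anchored at 0 by vehicle wells and at 1 by blank wells. Combination Emax is taken as the second-highest inhibition in the matrix, and Bliss excess as the observed combination effect less EA + EB − EA·EB, with EA and EB the single-agent effects.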

[2] = test system: Ca-Ski (Cervical Carcinoma); assay: as above
How it was run: as §1

[3] = test system: HAL-01 (B-Lymphoblastic Leukemia); assay: as above
How it was run: as §1

[4] = test system: HCC1500 (Breast Carcinoma); assay: as above
How it was run: as §1

[5] = test system: HCC1937 (Breast Carcinoma); assay: as above
How it was run: as §1

[6] = test system: HCC2998 (Colorectal Carcinoma); assay: as above
How it was run: as §1

[7] = test system: KGN (Other Solid Carcinomas); assay: as above
How it was run: as §1

[8] = test system: KMRC-1 (Kidney Carcinoma); assay: as above
How it was run: as §1

[9] = test system: ML-2 (Acute Myeloid Leukemia); assay: as above
How it was run: as §1

[10] = test system: MOLT-4 (T-Lymphoblastic Leukemia); assay: as above
How it was run: as §1

[11] = test system: MV-4-11 (Acute Myeloid Leukemia); assay: as above
How it was run: as §1

[12] = test system: Mo-T (Other Blood Carcinomas); assay: as above
How it was run: as §1

[13] = test system: NCI-H1092 (Small Cell Lung Carcinoma); assay: as above
How it was run: as §1

[14] = test system: NCI-H1838 (Lung Adenocarcinoma); assay: as above
How it was run: as §1

[15] = test system: OE33 (Esophageal Adenocarcinoma); assay: as above
How it was run: as §1

[16] = test system: SK-N-AS (Neuroblastoma); assay: as above
How it was run: as §1

[17] = test system: SW872 (Other Solid Carcinomas); assay: as above
How it was run: as §1

[18] = test system: SW982 (Other Solid Carcinomas); assay: as above
How it was run: as §1

[19] = test system: Ca-Ski (Cervical Carcinoma); assay: combination Emax (second highest fraction inhibited in the dose matrix, 72 h); higher = more inhibition; extreme values may be limits of the assay
How it was run: as §1

[20] = test system: HCC1937 (Breast Carcinoma); assay: as above
How it was run: as §1
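Wherever Bliss excess, mean over the matrix is given: after 72 h of two-drug dosing.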

Row | SMILES | Bliss excess [1] | Bliss excess [2] | Bliss excess [3] | Bliss excess [4] | Bliss excess [5] | Bliss excess [6] | Bliss excess [7] | Bliss excess [8] | Bliss excess [9] | Bliss excess [10] | Bliss excess [11] | Bliss excess [12] | Bliss excess [13] | Bliss excess [14] | Bliss excess [15] | Bliss excess [16] | Bliss excess [17] | Bliss excess [18] | combination Emax [19] | combination Emax [20]
1 | CC(=O)c1c(C)c2cnc(Nc3ccc(N4CCNCC4)cn3)nc2n(C2CCCC2)c1=O [Palbociclib] + CC1(C)CCC(CN2CCN(c3ccc(C(=O)NS(=O)(=O)c4ccc(NCC5CCOCC5)c([N+](=O)[O-])c4)c(Oc4cnc5[nH]ccc5c4)c3)CC2)=C(c2ccc(Cl)cc2)C1 [Venetoclax] (first compound max 10 µM, 7x7, partner max 1 µM) | -0.0676 | -0.0543 | -0.0461 | -0.0899 | -0.0578 | -0.0212 | 0.079 | -0.0653 | 0.0634 | -0.0654 | -0.0213 | -0.0648 | -0.0224 | 0.0042 | -0.0458 | -0.0354 | -0.0244 | -0.0508 | 0.131 | 0.0808
2 | COc1cccc(OCCCN)c1-c1cc(Nc2cnc(C#N)cn2)n[nH]1 [Prexasertib] + CN(C)CCCOc1ccc(-c2ccc3ncc4c(c3c2)n(C2CCOCC2)c(=O)n4C)cn1 [AZD0156] (first compound max 1 µM, 7x7, partner max 1 µM) | 0.0127 | -0.0373 | -0.0002 | 0.0475 | 0.0409 | -0.0121 | -0.0432 | -0.0317 | 0.003 | 0.0108 | -0.0249 | 0.0105 | -0.0561 | -0.0285 | -0.0272 | -0.0026 | -0.0035 | -0.0813 | 0.741 | 0.537
3 | Cn1cnc2c(F)c(Nc3ccc(Br)cc3Cl)c(C(=O)NOCCO)cc21 [Selumetinib] + CCN(CCO)CCCOc1ccc2c(Nc3cc(CC(=O)Nc4cccc(F)c4)[nH]n3)ncnc2c1 [AZD2811] (first compound max 10 µM, 7x7, partner max 1 µM) | -0.0381 | 0.0553 | 0.0385 | -0.0123 | 0.016 | -0.019 | -0.0586 | -0.0101 | -0.0371 | 0.0174 | -0.04 | -0.0328 | -0.0083 | -0.0363 | -0.0246 | -0.0108 | -0.01 | -0.0933 | 0.54 | 0.314
4 | NC1(C(=O)N[C@@H](CCO)c2ccc(Cl)cc2)CCN(c2ncnc3[nH]ccc23)CC1 [Capivasertib] + CC(C)n1c(=O)n(C)c2cnc3cc(F)c(-c4ccc(OCCCN5CCCCC5)nc4)cc3c21 [AZD1390] (first compound max 10 µM, 7x7, partner max 0.3 µM) | -0.116 | -0.0436 | -0.0354 | -0.0334 | -0.0666 | -0.0275 | -0.047 | -0.0645 | -0.0296 | -0.0083 | -0.0393 | -0.0451 | -0.0596 | -0.123 | -0.0563 | -0.0657 | -0.0562 | -0.0696 | 0.433 | 0.426
5 | COc1nnc2ccc(N3CCC(c4ccc(OCCN5CCN(C)C(=O)[C@H]5C)cc4)CC3)nn12 [AZD5153] + CCN(CCO)CCCOc1ccc2c(Nc3cc(CC(=O)Nc4cccc(F)c4)[nH]n3)ncnc2c1 [AZD2811] (first compound max 1 µM, 7x7, partner max 1 µM) | -0.0181 | -0.0238 | -0.0689 | 0.0233 | -0.0581 | -0.0288 | -0.0951 | -0.0437 | -0.0355 | 0.0277 | -0.0185 | 0.0014 | 0.0499 | -0.0282 | -0.0523 | -0.0065 | -0.0335 | -0.0857 | 0.591 | 0.383
6 | Cn1cnc2c(F)c(Nc3ccc(Br)cc3Cl)c(C(=O)NOCCO)cc21 [Selumetinib] + CC(C)n1c(=O)n(C)c2cnc3cc(F)c(-c4ccc(OCCCN5CCCCC5)nc4)cc3c21 [AZD1390] (first compound max 10 µM, 7x7, partner max 0.3 µM) | -0.0416 | -0.0032 | 0.0741 | -0.0156 | -0.0161 | 0.0076 | 0.0282 | -0.0685 | -0.0506 | 0.0535 | -0.0719 | -0.0339 | -0.0468 | -0.0514 | -0.0277 | -0.019 | 0.0169 | -0.0484 | 0.222 | 0.208
7 | Cc1c2c(nn1C)CSCc1cc(n(C)n1)CSc1cc(c3ccccc3c1)OCCCc1c(C(=O)O)n(C)c3c-2c(Cl)ccc13 [AZD5991] + CN(C)CCCOc1ccc(-c2ccc3ncc4c(c3c2)n(C2CCOCC2)c(=O)n4C)cn1 [AZD0156] (first compound max 1 µM, 7x7, partner max 1 µM) | 0.0068 | 0.0319 | -0.0246 | 0.0453 | 0.0106 | 0.0003 | -0.0314 | -0.0412 | -0.0149 | -0.0058 | -0.0395 | -0.0236 | 0.0063 | 0.043 | -0.0227 | -0.0303 | 0.0164 | -0.0485 | 0.303 | 0.333
